Assay [1] addresses Mitogen-activated protein kinase kinase kinase kinase 4 (Homo sapiens, UniProt O95819). Type of assay: functional.
Assay [2] concerns the target Homeodomain-interacting protein kinase 2 (Homo sapiens, UniProt Q9H2X6). The assay is classed as functional.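 Further: measured within a kinome-wide kinase profiling panel, HIPK2 being one panel member.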
Assay [3] deals with Glycogen synthase kinase-3 beta (Homo sapiens, UniProt P49841). The assay is classed as functional.
Assay [4] addresses cAMP-dependent protein kinase catalytic subunit alpha (Homo sapiens, UniProt P17612). The assay is classed as functional.
In assay [5] the target is Cell division cycle 7-related protein kinase (Homo sapiens, UniProt O00311). The assay is classed as functional.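 Further: value obtained from a kinome-wide kinase panel.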
The target of assay [6] is Cyclin-dependent kinase 2 (Homo sapiens, UniProt P24941). The assay is classed as functional.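 Further: CDK2 measured as one member of a broad kinome profiling panel.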
Assay [7] has as its target Interleukin-1 receptor-associated kinase 4 (Homo sapiens, UniProt Q9NWZ3). The assay is classed as functional.
Assay [8] addresses Dual specificity protein kinase CLK4 (Homo sapiens, UniProt Q9HAZ1). Type of assay: functional.
The target of assay [9] is Serine/threonine-protein kinase pim-1 (Homo sapiens, UniProt P11309). The assay is classed as functional.
Assay [10] has as its target T1, High affinity choline transporter 1 (Homo sapiens, UniProt Q9GZV3).
T1 sequence (Q9GZV3 whole entry): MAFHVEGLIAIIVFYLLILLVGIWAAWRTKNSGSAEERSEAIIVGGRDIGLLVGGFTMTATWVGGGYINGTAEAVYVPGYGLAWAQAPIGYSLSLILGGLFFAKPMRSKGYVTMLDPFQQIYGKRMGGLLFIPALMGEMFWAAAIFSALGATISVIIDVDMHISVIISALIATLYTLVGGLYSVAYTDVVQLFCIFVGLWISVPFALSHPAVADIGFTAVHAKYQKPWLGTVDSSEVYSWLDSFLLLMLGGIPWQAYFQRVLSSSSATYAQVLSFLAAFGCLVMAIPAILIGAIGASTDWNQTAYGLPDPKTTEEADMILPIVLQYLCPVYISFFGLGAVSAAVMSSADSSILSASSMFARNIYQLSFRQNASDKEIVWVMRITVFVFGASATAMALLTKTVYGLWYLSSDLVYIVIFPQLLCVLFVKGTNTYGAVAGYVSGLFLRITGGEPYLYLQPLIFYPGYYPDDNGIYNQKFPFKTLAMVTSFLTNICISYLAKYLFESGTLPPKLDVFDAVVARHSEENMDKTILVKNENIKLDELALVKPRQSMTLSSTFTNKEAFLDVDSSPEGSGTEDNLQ
Nature of the assay: CHT activators, dose response, cell-based, 10-point CRC, membrane potential dye (AID 602376). The assay is classed as functional.

The target of a further assay is Genome polyprotein (dengue virus type 2, UniProt P29990). In words: Dengue-2 NS5 methyltransferase inhibitors, primary screen, biochemical, confirmation dose response (AID 588689). The assay is classed as functional.
Assay [11] can be described thus: AlphaScreen signal interference compounds, dose response, artefact control for ARNT-TACC3 interaction inhibitor project, biochemical, luminescence, cherry-pick (AID 651705).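 Further: AlphaScreen bead proximity signal that flags compounds interfering with the detection technology; potency reflects signal decrease which marks the compound as an assay artifact.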 Type of assay: functional. (In general: Alpha assays give light when donor and acceptor beads are brought close together.)
A short description of assay [12]: THP-1 cell cytotoxicity, dose response, cytotoxicity control for Vif-APOBEC3G degradation inhibitor project, THP-1 cells (AID 1117359). The assay is classed as functional. As to conditions: Human immunodeficiency virus 1, THP-1.
Assay [13] concerns the target T2, Sentrin-specific protease 8 (Homo sapiens, UniProt Q96LD8).
T2 sequence (Q96LD8 whole entry): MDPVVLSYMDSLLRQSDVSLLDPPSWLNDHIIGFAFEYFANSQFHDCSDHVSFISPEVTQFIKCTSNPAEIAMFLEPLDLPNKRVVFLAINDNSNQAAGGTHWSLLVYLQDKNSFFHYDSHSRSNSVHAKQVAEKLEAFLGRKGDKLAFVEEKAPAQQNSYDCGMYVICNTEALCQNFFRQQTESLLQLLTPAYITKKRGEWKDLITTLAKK
The assay is classed as functional.

Assay [14] deals with T2, Sentrin-specific protease 8. The assay is classed as functional. This is another data set of the same source.
Assay [15] deals with T3, DNA repair protein RAD52 homolog (Homo sapiens, UniProt P43351).
T3 sequence (P43351 whole entry): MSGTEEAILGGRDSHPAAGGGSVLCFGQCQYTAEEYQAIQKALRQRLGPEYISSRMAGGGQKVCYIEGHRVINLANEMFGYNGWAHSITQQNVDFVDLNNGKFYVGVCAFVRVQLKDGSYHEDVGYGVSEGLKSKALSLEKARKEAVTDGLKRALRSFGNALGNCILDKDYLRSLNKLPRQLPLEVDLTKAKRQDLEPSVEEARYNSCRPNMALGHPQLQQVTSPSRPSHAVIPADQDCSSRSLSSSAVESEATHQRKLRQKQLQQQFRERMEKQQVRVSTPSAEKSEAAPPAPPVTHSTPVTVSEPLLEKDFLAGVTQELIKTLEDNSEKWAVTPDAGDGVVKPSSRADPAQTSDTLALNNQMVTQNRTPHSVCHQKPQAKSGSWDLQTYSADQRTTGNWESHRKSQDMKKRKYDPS
Type of assay: functional, biochemical.

A further assay addresses T4, Caspase-3 (Homo sapiens, UniProt P42574).
T4 sequence (P42574 whole entry): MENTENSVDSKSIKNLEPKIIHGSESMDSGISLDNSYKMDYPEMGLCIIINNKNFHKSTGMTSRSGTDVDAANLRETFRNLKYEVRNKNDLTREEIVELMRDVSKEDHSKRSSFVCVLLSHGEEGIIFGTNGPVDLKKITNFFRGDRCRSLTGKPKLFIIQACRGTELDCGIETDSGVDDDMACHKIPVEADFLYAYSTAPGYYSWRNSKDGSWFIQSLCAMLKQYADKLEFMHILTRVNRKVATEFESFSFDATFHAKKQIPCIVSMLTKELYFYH
In words: Dose-response confirmation of uHTS inhibitor hits of Sentrin-Specific Protease 8 in a Caspase-3 Fluorescence assay. The assay is classed as functional.

In assay [16] the target is Glutathione-S-transferase (Schistosoma japonicum, UniProt Q26513). Nature of the assay: biotin-GST/anti-GST TR-FRET signal inhibitors, dose response, artefact control for Vif-APOBEC3G degradation inhibitor project, biochemical (AID 1117362). The assay is classed as functional.
Assay [17] deals with Latent membrane protein 1 (Human herpesvirus 4 (strain B95-8), UniProt P03230). In words: TES1-eGFP NF-kB reporter inhibition versus Tet-On dsRED, dose response, selectivity assay for LMP1 NF-kB inhibitor project, imaging, HEK293T, dual-color eGFP/dsRED, cherry-picks (AID 588398). Type of assay: functional, cell-based.
Assay [18] addresses Botulinum neurotoxin type A (Clostridium botulinum (strain Hall / ATCC 3502 / NCTC 13319 / Type A), UniProt P0DPI1). Nature of the assay: High-throughput multiplex microsphere dose response for inhibitors of toxin protease, specifically Botulinum neurotoxin light chain A protease, compounds from Cherry Pick 01. Type of assay: functional. As to conditions: read-out: EC50_MICROM.

A short description of assay [19]: microbe, parasite or virus in culture. The assay is classed as functional. As to conditions: Mycobacterium tuberculosis.
The next assay concerns INS1. Nature of the assay: beta cell apoptosis inhibitors, cytokine rescue, dose response, luminescence, retest (AID 449756).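 Further: cell death triggered by IL-1 beta plus TNF-alpha plus IFN-gamma mixture; protective hits raise ATP signal compared with cytokine alone wells.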 As to conditions: Rattus norvegicus. Type of assay: functional, cell-based.

The source made the active and inactive calls.

Sequence of Interleukin-1 receptor-associated kinase 4 (Q9NWZ3 whole entry): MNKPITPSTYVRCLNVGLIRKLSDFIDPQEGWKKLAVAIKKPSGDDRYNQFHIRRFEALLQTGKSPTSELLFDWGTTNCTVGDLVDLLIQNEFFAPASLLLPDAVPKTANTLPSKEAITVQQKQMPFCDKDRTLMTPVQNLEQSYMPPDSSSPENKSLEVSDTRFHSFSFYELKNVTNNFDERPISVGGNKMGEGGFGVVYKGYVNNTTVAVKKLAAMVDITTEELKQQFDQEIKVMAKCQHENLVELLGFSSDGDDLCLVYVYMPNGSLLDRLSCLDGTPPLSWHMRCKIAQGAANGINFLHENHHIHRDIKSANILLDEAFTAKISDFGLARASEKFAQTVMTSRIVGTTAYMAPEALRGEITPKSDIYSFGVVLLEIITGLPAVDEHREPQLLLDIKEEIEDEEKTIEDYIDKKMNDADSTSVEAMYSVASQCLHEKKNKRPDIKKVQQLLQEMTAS
Sequence of Mitogen-activated protein kinase kinase kinase kinase 4 (O95819 whole entry): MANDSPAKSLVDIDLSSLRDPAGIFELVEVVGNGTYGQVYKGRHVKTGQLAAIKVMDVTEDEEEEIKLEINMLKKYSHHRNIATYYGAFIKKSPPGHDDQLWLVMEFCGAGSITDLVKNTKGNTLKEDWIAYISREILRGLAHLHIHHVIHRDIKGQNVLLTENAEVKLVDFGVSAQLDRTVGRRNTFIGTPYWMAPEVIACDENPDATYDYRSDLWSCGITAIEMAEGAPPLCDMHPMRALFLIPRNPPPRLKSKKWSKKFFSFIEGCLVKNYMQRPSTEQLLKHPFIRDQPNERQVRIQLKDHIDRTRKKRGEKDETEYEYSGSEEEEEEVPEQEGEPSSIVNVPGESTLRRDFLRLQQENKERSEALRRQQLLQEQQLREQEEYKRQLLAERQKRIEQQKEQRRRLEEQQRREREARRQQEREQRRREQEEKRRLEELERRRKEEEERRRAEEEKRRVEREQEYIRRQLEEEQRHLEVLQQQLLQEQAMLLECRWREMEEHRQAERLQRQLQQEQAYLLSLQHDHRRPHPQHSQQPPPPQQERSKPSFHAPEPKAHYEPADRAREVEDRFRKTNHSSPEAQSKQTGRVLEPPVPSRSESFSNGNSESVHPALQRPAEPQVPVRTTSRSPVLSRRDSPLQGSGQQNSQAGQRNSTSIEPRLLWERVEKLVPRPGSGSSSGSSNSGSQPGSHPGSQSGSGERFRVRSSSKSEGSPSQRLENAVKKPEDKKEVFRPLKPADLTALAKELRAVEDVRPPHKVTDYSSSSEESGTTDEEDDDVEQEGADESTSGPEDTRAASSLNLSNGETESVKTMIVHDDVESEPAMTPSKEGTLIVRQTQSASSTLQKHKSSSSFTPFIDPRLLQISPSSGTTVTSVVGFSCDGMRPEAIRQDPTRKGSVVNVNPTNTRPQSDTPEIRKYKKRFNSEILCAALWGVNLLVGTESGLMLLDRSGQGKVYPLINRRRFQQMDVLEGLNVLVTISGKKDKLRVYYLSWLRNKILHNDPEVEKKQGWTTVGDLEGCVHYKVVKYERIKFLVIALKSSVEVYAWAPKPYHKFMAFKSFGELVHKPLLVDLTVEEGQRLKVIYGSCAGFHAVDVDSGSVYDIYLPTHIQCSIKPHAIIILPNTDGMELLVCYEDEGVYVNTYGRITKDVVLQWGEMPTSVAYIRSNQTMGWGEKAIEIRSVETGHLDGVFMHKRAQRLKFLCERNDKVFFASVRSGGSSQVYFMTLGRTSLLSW
Sequence of Homeodomain-interacting protein kinase 2 (Q9H2X6 whole entry): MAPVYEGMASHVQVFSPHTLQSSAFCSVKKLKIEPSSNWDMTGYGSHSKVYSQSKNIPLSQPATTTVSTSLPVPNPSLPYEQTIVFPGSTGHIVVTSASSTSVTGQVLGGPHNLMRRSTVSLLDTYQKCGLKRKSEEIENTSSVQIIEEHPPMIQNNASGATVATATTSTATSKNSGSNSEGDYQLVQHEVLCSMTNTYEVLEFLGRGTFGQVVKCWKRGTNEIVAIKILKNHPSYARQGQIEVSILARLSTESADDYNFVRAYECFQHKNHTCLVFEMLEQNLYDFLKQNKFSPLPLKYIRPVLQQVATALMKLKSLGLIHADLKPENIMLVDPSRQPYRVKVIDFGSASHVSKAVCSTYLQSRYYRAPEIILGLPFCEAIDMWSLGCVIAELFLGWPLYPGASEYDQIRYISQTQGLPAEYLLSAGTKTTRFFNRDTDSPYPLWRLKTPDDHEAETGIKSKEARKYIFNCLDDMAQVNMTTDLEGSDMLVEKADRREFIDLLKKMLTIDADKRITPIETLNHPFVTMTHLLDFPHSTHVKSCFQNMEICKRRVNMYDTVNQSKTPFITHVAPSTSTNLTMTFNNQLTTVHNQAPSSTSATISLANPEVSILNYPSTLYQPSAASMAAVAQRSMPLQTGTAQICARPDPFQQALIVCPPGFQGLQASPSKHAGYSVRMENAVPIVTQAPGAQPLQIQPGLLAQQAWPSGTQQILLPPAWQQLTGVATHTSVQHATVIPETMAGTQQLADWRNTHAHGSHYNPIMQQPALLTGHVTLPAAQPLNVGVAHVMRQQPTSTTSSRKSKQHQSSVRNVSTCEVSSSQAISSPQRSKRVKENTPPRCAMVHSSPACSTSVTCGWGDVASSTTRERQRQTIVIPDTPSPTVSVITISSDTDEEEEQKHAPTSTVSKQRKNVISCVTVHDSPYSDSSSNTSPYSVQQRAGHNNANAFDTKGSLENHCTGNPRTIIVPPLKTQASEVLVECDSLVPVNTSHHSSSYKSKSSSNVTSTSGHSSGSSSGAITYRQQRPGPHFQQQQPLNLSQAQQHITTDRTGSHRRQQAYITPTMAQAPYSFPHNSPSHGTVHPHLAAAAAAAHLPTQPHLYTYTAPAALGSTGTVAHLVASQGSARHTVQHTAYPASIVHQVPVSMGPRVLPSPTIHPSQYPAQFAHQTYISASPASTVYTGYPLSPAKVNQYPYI
Sequence of Cell division cycle 7-related protein kinase (O00311 whole entry): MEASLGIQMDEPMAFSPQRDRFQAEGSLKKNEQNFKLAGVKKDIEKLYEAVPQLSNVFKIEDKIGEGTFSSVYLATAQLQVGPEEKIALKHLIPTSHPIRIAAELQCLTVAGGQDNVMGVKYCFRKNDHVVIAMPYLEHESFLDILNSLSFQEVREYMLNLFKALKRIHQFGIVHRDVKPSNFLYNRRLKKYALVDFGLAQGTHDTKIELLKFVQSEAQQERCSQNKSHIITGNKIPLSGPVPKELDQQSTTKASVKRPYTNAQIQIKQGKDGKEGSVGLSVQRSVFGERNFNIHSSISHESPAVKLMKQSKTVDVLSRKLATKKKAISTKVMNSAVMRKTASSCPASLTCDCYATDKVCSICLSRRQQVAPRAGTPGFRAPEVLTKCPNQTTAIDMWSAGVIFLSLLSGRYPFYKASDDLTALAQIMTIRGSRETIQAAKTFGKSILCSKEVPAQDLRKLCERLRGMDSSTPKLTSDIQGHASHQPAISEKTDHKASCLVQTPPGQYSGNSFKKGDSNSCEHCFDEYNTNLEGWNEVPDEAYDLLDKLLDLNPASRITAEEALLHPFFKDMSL
Sequence of Latent membrane protein 1 (P03230 whole entry): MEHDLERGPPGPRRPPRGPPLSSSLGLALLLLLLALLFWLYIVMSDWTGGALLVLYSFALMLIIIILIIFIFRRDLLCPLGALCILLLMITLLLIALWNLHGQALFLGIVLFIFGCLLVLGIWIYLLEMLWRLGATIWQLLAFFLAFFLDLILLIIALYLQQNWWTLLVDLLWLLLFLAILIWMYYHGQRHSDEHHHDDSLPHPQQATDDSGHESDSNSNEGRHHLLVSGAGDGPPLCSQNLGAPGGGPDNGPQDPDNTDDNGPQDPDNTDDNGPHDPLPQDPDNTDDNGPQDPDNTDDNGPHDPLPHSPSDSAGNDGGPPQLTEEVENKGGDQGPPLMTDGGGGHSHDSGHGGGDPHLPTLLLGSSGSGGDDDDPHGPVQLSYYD
Sequence of Dual specificity protein kinase CLK4 (Q9HAZ1 whole entry): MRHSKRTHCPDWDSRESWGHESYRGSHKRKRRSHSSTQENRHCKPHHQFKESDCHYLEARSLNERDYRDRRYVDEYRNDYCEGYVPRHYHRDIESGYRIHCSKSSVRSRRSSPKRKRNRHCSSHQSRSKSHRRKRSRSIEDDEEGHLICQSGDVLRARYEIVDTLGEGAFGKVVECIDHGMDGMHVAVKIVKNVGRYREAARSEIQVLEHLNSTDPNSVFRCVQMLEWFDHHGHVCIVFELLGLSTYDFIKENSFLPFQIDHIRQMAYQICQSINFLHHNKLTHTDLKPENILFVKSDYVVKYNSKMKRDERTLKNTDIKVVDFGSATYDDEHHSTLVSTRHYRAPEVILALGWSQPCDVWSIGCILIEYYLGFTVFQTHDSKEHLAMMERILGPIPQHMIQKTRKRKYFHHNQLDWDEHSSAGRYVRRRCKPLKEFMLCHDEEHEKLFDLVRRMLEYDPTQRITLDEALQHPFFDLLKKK
Sequence of Serine/threonine-protein kinase pim-1 (P11309 whole entry): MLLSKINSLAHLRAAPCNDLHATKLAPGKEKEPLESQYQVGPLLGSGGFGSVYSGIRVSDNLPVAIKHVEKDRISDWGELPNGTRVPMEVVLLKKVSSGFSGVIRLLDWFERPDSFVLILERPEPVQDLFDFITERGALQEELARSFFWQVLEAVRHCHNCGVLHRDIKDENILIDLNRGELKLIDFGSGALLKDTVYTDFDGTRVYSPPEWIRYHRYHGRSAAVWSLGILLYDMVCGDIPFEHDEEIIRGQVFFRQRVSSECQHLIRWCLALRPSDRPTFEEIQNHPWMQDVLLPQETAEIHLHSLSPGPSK
Sequence of Glutathione-S-transferase (Q26513 whole entry): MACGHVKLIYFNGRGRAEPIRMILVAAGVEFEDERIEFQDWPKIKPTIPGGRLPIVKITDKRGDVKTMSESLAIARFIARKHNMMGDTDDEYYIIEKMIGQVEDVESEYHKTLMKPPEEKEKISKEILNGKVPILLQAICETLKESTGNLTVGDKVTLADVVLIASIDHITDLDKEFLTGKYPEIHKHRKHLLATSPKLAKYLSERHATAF

Broadly, the Ki is the dissociation constant of the complex between target and ligand, obtained from inhibition or displacement. As for `Cn1cc(-c2ccccc2)c2nc(-c3ccncc3)cc(=O)n21`, the Ki in assay [1] was 1.26 µM (active); in assay [2] it was 0.1 µM (active); in assay [3], 0.126 µM (active); in assay [4], 5.01 µM (active); in assay [5], 0.0158 µM (active); in [6], > 7.94 µM (inactive). The Ki in [7] is > 10 µM (inactive); in assay [8], 0.0316 µM (active); in assay [9], 2.51 µM (active).
For `CCCCCCCCC1=NCCc2c1[nH]c1ccccc21`, the EC50 in assay [10] is 13.7 µM (active).
In general, IC50 refers to the midpoint of a concentration-inhibition curve. Usually AC50 stands for the midpoint of the concentration-response curve, whichever way the signal moves. Regarding `COc1cc(NCCCCCCN)c2ncccc2c1OC`, the half-inhibitory concentration (IC50) at Genome polyprotein is > 100 µM (active); in [13], 0.434 µM (active); in assay [14], 0.208 µM (active); at Caspase-3, 4.23 µM (active); in assay [16], 2.53 µM (active). Besides, the AC50 is 132 µM (active) in [11], 0.87 µM (active) in [15] and 34.4 µM (active) in [17]. Also, the CC50 in assay [12] is > 40 µM (active).
With `O=c1c(Cl)c2oc3ccccc3nc-2c2ccccc12`, the EC50 in assay [18] is 12.4 µM (active). Besides, in [19], the CC50 was > 40 µM (active). In addition, the AC50 in the assay with INS1 was 2.61 µM (active).

The values are drawn from ChEMBL document CHEMBL1201862, “PubChem BioAssay data set” (2004).
